d = 2'-deoxy (DNA); m = 2'-O-methyl; r = 2'-OH (RNA); f = 2'-fluoro
Experiments:
[1] = system: A549 cancer xenograft tumors; test: A549 cancer xenograft model, tumor inhibition efficacy; assay type: in vivo, mouse; details: 0.75 mg/kg IV, two injections (day 1 and 15)
Method: For the cancer xenograft model, an A549 cell line was obtained from ATCC. The cells were maintained in culture medium supplemented with 10% Fetal Bovine Serum and 100 U/ml penicillin and 100 μg/ml streptomycin. Cells were split 48 hrs before inoculation so that cells were in log phase growth when harvested. Cells were lightly trypsinized with trypsin-EDTA and harvested from tissue culture. The number of viable cells was counted and determined in a hemocytometer in the presence of trypan blue (only viable cells are counted). The cells were resuspended to a concentration of 5×10^7/ml in media without serum. […]
For tumor volume measurements and randomization, tumor size was measured to the nearest 0.1 mm. Tumor volumes were calculated using the formula: […]. […] Tumor volumes were monitored three times for week 1, twice for the rest of weeks, including the day of study termination. […]
For body weight, mice were weighed to the nearest 0.1 g. Body weights were monitored and recorded daily within 7 days post dosing for first dose. Body weights were monitored and recorded twice for weeks, for the rest of weeks, including the day of study termination.
For tumors collection, on 28 days post first dosing, tumor volume was measured, and tumor was dissected for weight measurement, and stored for PD biomarker study. Tumor weight was recorded. […]

[2] = system: PUMA; test: PUMA biomarker for apoptosis of cancer cells in vitro (qPCR); assay type: cell-based; details: from 2-4 days after transfection; siRNA 10 nM
Method: The protocol for the PUMA biomarker was as follows. One day before transfection, cells were plated in a 96-well plate at 2×10^3 cells per well with 100 μl of DMEM (HyClone Cat. # SH30243.01) containing 10% FBS and cultured in a 37° C. incubator containing a humidified atmosphere of 5% CO2 in air. Next day, before transfection the medium was replaced with 90 μl of Opti-MEM I Reduced Serum Medium (Life Technologies Cat. #31985-070) containing 2% FBS. Then, 0.2 μl of Lipofectamine RNAiMAX (Life Technologies Cat. #13778-100) were mixed with 4.8 μl of Opti-MEM I for 5 minutes at room temperature. 1 μl of the siRNAs (stock conc. 1 μM) was mixed with 4 μl of Opti-MEM I and combined with the RNAiMAX solution and then mixed gently. The mixture was incubated for 10 minutes at room temperature to allow the RNA-RNAiMAX complexes to form. 10 μl of RNA-RNAiMAX complexes were added per well, to final concentration of the siRNA 10 nM. The cells were incubated for 2 hours and medium changed to fresh Opti-MEM I Reduced Serum Medium containing 2% FBS. […] PUMA (BBC3, Cat# Hs00248075, Life Technologies) mRNA levels were measured by qPCR with TAQMAN.
The protocol for the PUMA biomarker was as follows. […] PUMA (BBC3, Cat#Hs00248075, Life Technologies) mRNA levels were measured by qPCR with TAQMAN.

[3] = system: GST-π mRNA; test: Knockdown of GST-π mRNA in A549 xenograft tumors in vivo; design: species or system mouse
[4] = system: A549 orthotopic lung cancer tumors; test: Orthotopic A549 lung cancer mouse model; details: 2 mg/kg
Method: The anti-tumor efficacy of the siRNA formulation against human lung cancer A549 was evaluated by comparing the final primary tumor weights measured at necropsy for the treatment group and the vehicle control group.
For this study, male NCr nu/nu mice, 5-6 weeks old, were used. The experimental animals were maintained in a HEPA filtered environment during the experimental period. The siRNA formulations were stored at 4° C. before use, and warmed to room temperature 10 minutes prior to injection in mouse.
For this A549 human lung cancer orthotopic model, on the day of surgical orthotopic implantation (SOI), the stock tumors were harvested from the subcutaneous site of animals bearing A549 tumor xenograft and placed in RPMI1640 medium. Necrotic tissues were removed and viable tissues were cut into 1.5-2 mm^3 pieces. The animals were anesthetized with isoflurane inhalation and the surgical area was sterilized with iodine and alcohol. A transverse incision approximately 1.5 cm long was made in the left chest wall of the mouse using a pair of surgical scissors. An intercostal incision was made between the third and the fourth rib and the left lung was exposed. One A549 tumor fragment was transplanted to the surface of the lung with an 8-0 surgical suture (nylon). The chest wall was closed with a 6-0 surgical suture (silk). The lung was re-inflated by intrathoracic puncture using a 3 cc syringe with a 25 G×1½ needle to draw out the remaining air in the chest cavity. The chest wall was closed with a 6-0 surgical silk suture.
Three days after tumor implantation, the model tumor-bearing mice were randomly divided into groups of ten mice per group. For the group of interest, treatment of the ten mice was initiated three days after tumor implantation.
For the group of interest, the formulation was (Ionizable lipid: cholesterol:DOPE:DOPC:DPPE-PEG-2K:DSPE-PEG-2K), a liposomal composition. The liposomes encapsulated the GST-π siRNA.
For the study endpoint, the experimental mice were sacrificed forty-two days after treatment initiation. […]

Substance	tumor volume reduced as compared to control ([1]; after 36 days, liposomal formulation) [fold]	tumor weight reduced ([1]; endpoint day)	expression of PUMA [2]	reduction of GST-π mRNA ([3]; 4 mg/kg, single injection, 24 hours after injection)	GST-π mRNA expression ([3]; 4 days after injection in a lipid formulation)	final tumor average weights reduced as compared to control ([4]; after 43 days, liposomal formulation, athymic nude mice) [fold]	mean body weight of the mice ([4]; entire experimental period)	other symptoms of toxicity ([4]; entire experimental period)
SEQ ID NOs:156 and 182: GST-π siRNA, Table 2; sense GAAGCCUUUUGAGACCCUAUU; antisense fUAGgGuCuCAAAAGGCUUCUU (antisense UAGGGUCUCAAAAGGCUUCUU; sense: sugars from the 5' end mmmrrrrmrmrrrrrrrmmmm, backbone not given here; antisense: sugars from the 5' end frrdrdrdmrmmrrrrmmrmm, backbone and T or U not given here)	2	more than 2 fold	greatly increased	–	–	–	–	–
SEQ ID NOs:61 and 126: GST-π siRNA; sense GAAGCCUUUUGAGACCCUAtt; antisense UAGGGUCUCAAAAGGCUUCag (sense GAAGCCUUUUGAGACCCUATT; antisense UAGGGUCUCAAAAGGCUUCAG; chemistry not given here)	–	–	–	about 40%	significant reduction	2.8	maintained within the normal range	not observed
